The values below come from paper PMC11836371, “Virtual fragment screening for DNA repair inhibitors in vast chemical space” (Nature Communications, 2025).

The viability is the share of living cells, or the viability signal relative to a control.

The test system of one data set is HCT116 cells. Put plainly: Cancer cell viability assay (resazurin), HCT116. To be noted: two independent experiments; for percentage cell viability: HCT116, 100 μM, 100 µM; for viability at 100 µM: Homo sapiens, HCT-116, HCT116, 100 μM, read-out: percentage cell viability. The format is cell-based. How it is done: (§1) Three different cancer cell lines A2780 (ovarian cancer, ECACC 93112519), A549 (lung cancer, ATCC 60150896) and HCT116 (colon cancer, ATCC CCL-247), and one immortalized fibroblast cell line (BJhTERT) as control, were seeded in black/clear 384-well plates (Corning #3764), 50 µL/well, containing 11 concentrations, nano-dispensed, dose-response curves of the test compounds. A2780, HCT116, and HEK293T cell lines were authenticated with STR profiling, frozen down, and these stocks were used in experiments. The A2780 cells were cultured in RPMI 1640, the A549 and BJhTERT cells in DMEM, and the HCT116 cells in McCoys 5 A medium. All media were supplemented with 10% FBS and 1% P/S. All cell culture media, additives, and reagents were purchased from Thermo Fisher Scientific. The cell plates were incubated 72 hours in a humidified incubator at 37 °C with 5% CO2, after which resazurin (Sigma-Aldrich), 10 µL/well, was added to a final concentration of 10 µg/mL. The plates were incubated for 6 hours with resazurin followed by fluorescence readings in a Sense plate reader (Hidex), resorufin protocol (ex 544 nm/em 595 nm). The cell viability was calculated compared to untreated control wells and the EC50 values were determined in XLfit (IDBS).
(Resazurin is reduced to fluorescent resorufin, in cell work by metabolically active cells.)

Another data set relates to A2780 cells. Put plainly: Cancer cell viability assay (resazurin), A2780. To be noted: two independent experiments; for percentage cell viability: A2780, 100 μM, 100 µM; for viability at 100 µM: Homo sapiens, A2780, A2780, 100 μM, read-out: percentage cell viability. The format is cell-based. How it is done:
as §1

Data set [1] has as its system NF-κB activation in HEK293T pGF NF-κB cells. Kind of data set: TNF-α induced NF-κB activation assay. Format: cell-based. To be noted: Homo sapiens, HEK-293T; NFκB activation assay; ± SD; read-out: pEC50 (converted). As for the experimental part: The inhibition of TNF-α induced NF-κB activation was measured in HEK293T cells transfected with the pGreenfire NF-κB plasmid. This is a plasmid that has NF-κB response elements (TRE) coupled to GFP and luciferase expression. When the NF-κB is activated by TNF-α, it binds to the TRE and induces GFP expression, and the fluorescence can be measured in a plate reader. The cells were authenticated with STR profiling, frozen down and these stocks were used in experiments. The HEK293T pGF NF-κB cells were kept in DMEM with 5% FBS and 1% P/S but, when seeded for the assay the medium was changed to DMEM FluoroBrite with 1% dialyzed FBS. All cell culture reagents were purchased from Thermo Fisher Scientific. Compounds were nano-dispensed (Echo acoustic dispenser) in 96-well, black/clear, assay plates (Corning #3904), duplicate plates, in 8-points dose-response curves, 1:2 dilutions, with DMSO compensation (0.3% DMSO). Cells were seeded at 30000 cells/well in medium containing 10 ng/mL of TNF-α (Sigma-Aldrich), except negative control wells which only contained cells in medium. Cells were cultured for 24 hours in a humidified incubator at 37 °C with 5% CO2 after which the GFP fluorescence was measured in a Sense plate reader (Hidex) with ex485/em535. The RFU data from the duplicate plates were combined to calculate % inhibition of NF-κB activation and IC50-values were calculated using XLfit (IDBS). In parallel with the NF-κB assay, a CellTiterGlo (Promega) cell viability assay was run to exclude compounds affecting cell viability. Compounds were nano-dispensed (Echo acoustic dispenser) in assay plates in 11-points dose-response curves, 1:3 dilutions, without DMSO compensation, with duplicates on the same plate. Cells were seeded at 7500 cells/well in 25 µL medium (DMEM FluoroBrite with 1% dialyzed FBS) containing 10 ng/mL TNF-α and cultured for 24 hours, with column 24 containing only culture medium. After equilibration to room temperature, the CellTiterGlo reagents were mixed and 25 µL/well were added to the cell plate. After 2 min mixing of the plate on an orbital shaker, the plate was incubated for 10 min at room temperature followed by luminescence reading in Sense. The cell viability was calculated compared to untreated control wells and the EC50 values were determined in XLfit (IDBS). […]

Data set [2] in a line: Cell viability assay (resazurin), BJhTERT non-transformed control. To be noted: human, BJhTERT, 100 μM, two independent experiments; read-out: percentage cell viability. The format is cell-based. As for the experimental part: (§2) A2780, HCT116, and HEK293T cell lines were authenticated with STR profiling, frozen down, and these stocks were used in experiments. […] All media were supplemented with 10% FBS and 1% P/S. All cell culture media, additives, and reagents were purchased from Thermo Fisher Scientific. The cell plates were incubated 72 hours in a humidified incubator at 37 °C with 5% CO2, after which resazurin (Sigma-Aldrich), 10 µL/well, was added to a final concentration of 10 µg/mL. […] The cell viability was calculated compared to untreated control wells and the EC50 values were determined in XLfit (IDBS).

The subject of the next data set is BJhTERT cells. Described as above. Format: cell-based. To be noted: BJhTERT, 100 μM, two independent experiments. As for the experimental part: as §2
Data set [3] deals with T1, human OGG1 enzyme (Homo sapiens, UniProt O15527). Kind of data set: Differential scanning fluorimetry (DSF) thermal shift assay. The format is binding. To be noted: 99 μM. As for the experimental part: The temperature was increased from 20 °C to 85 °C with 10 readings/degree. Tm values were calculated using an excel template and fitting to the Boltzmann equation in Prism v.6.07 (GraphPad Software).
T1 sequence (O15527 whole entry): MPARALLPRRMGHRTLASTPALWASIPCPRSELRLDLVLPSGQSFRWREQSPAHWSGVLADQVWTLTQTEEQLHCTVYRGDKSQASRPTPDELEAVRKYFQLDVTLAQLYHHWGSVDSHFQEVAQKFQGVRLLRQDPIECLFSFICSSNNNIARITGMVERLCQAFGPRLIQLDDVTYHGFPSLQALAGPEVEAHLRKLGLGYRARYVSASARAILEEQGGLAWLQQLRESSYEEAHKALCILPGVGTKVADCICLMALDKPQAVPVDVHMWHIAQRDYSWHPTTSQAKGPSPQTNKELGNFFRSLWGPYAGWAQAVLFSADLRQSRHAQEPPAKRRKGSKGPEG

In data set [4] the target is T1, human OGG1 enzyme. Put plainly: OGG1 glycosylase activity assay (enzyme inhibition, APE1-coupled fluorescence). Format: biochemical.
Procedure: “8” signifies 8-oxoA and “FAM” and “Dab” signify fluorescein and dabcyl (TriLink Biotech). Briefly, compounds dissolved in DMSO were dispensed using an Echo 550 (Labcyte), followed by transfer of enzyme and substrate solutions manually with a 16-channel pipette or with a Multidrop (Thermo Scientific). The plates were centrifuged, sealed and incubated at room temperature overnight (15 h) and read the following morning in an Hidex Sense plate reader (Hidex Oy) using a 485-nm filter with a bandwidth of 10 nm for excitation and a 535-nm filter with a bandwidth of 20 nm for emission.
The next data set concerns the target MTH1 (Homo sapiens, UniProt P36639). Kind of data set: biochemical.
In another data set the test system is A549 cells. Put plainly: Cancer cell viability assay (resazurin), A549. The format is cell-based. To be noted: two independent experiments; for percentage cell viability: A549, 100 μM, 100 µM; for viability at 100 µM: Homo sapiens, A549, A549, 100 μM, read-out: percentage cell viability. As for the experimental part: as §1
[5] abbreviates: Figure 3B source data, three independent experiments, read-out: IC50 OGG1.
Setting [6] is: Table S5, ± SD, read-out: pIC50 (converted).

Structures are written as SMILES. Where “and” joins values, the source holds several entries; their conditions need not be identical. Equal entries are not always repeated. Where two headings read alike, the source gives them in different places.

Procedure for MTH1: Inhibition of the following enzymes was assessed in the selectivity assays: apurinic/apyrimidinic endonuclease (APE1), endonuclease 8-like 1 (NEIL1), oxidized purine nucleoside triphosphate hydrolase (MTH1) and single-strand selective monofunctional uracil DNA glycosylase (SMUG1). BER enzymes were assayed with a similar strategy as OGG1, using identical DNA sequences surrounding the substrate lesion and the same reaction buffer containing 2 nM APE1. To assess SMUG1 inhibition, a 375 nM substrate containing uracil opposite guanine and 0.3 U SMUG1 enzyme (M0336 from New England Biolabs) was used. To assess NEIL1 inhibition, a 20 nM substrate containing thymidine glycol opposite adenine and 10 nM NEIL1 was used. To assess APE1 inhibition, an UNG2 substrate was pre-treated with E. coli Uracil-DNA glycosylase (New England Biolabs M0280) to generate an AP-site opposite adenine, which was used at 10 nM concentration in the presence of 0.1 nM APE1. All BER inhibition assays were in the linear range and less than 40% of the total substrate had been consumed at readout. The experiments were performed in three independent replicates and the percentage inhibition was calculated relative to the signal of a DMSO-treated control. To assess MTH1 inhibition, MTH1-catalyzed dGTP hydrolysis was coupled to inorganic pyrophosphatase (PPase), thereby releasing inorganic phosphate. The produced free phosphate was then detected using the malachite green assay[76]. […] Substrate concentration at the Km value for the respective substrate was chosen if possible. Inhibition using 100 μM compound was tested in reaction buffer (100 mM Tris-Acetate pH 8.0, 10 mM magnesium acetate, 40 mM NaCl, 1 mM DTT, and 0.005% Tween-20). Samples were incubated with shaking at 22 °C for 15 minutes. The reaction was then stopped by the addition of the malachite green reagent[76]. Absorbance was read at 630 nm using a Hidex Sense plate reader after a period of incubation with the methylene green reagent of 15 minutes. The experiment was performed in three independent replicates and percentage inhibition was calculated relative to the signal of a DMSO-treated control.

Turning to `Cc1nc(-c2ccc(CC(=O)Nc3noc4c3CCCC4)cc2F)c(C)[nH]1` [compound 18], the percentage cell viability was 53.92% in the data set with HCT116 cells, 4.22% in the data set on A2780 cells, 41.01% in the data set with BJhTERT cells and 56.99% in the data set with A549 cells. In addition, the viability at 100 µM in the data set on HCT116 cells was 45.2%; in the data set with A2780 cells it was 3.84%; with A549 cells, 53.3%. For the same compound, in data set [1], the EC50 was 11.7 µM. Also, in [2], the viability at 72 h, 100 µM came out at 38.1%. The “∆Tm (K)” value at human OGG1 enzyme [3] amounted to 7.8 K. Further, the IC50 at human OGG1 enzyme [4] (setting [5]) is 0.589 µM and 0.638 µM and 0.615 µM; at human OGG1 enzyme [4] (setting [6]) it was 0.832 µM; against MTH1, 18.4 µM and 20 µM and 18.5 µM.

Turning to `O=C(Cc1ccc(-n2nc(Cl)c3ccccc32)cc1)Nc1noc2c1CCCC2` [compound 12], the percentage cell viability with HCT116 cells was 2.49%; in the data set with A2780 cells, 0.88%; in the data set with BJhTERT cells, 28.88%; in the data set on A549 cells, 10.09%. The viability at 100 µM in the data set on HCT116 cells is 3.25%; in the data set on A2780 cells it was 1.08%; with A549 cells, 12.3%. In addition, in data set [1], the EC50 was 5.5 µM. In addition, the viability at 72 h, 100 µM in data set [2] stood at 30.1%. Also, the “∆Tm (K)” value at human OGG1 enzyme [3] is 2.3 K. Besides, on human OGG1 enzyme [4] (setting [6]), the IC50 was 10.5 µM.

On to `Cc1cc(C2CC2)n(-c2ccc(CC(=O)Nc3noc4c3CCCC4)cc2)n1` [compound 9], for which the percentage cell viability with HCT116 cells was 86.44%; in the data set with A2780 cells it was 25.03%; with BJhTERT cells, 80.1%; in the data set on A549 cells, 68.3%. For the same compound, the viability at 100 µM with HCT116 cells came out at 81.6%; in the data set on A2780 cells it was 21.5%; in the data set on A549 cells, 68.1%. Further, the EC50 in [1] is 9.12 µM. Moreover, in data set [2], the viability at 72 h, 100 µM was found to be 73%. On human OGG1 enzyme [3], the “∆Tm (K)” value amounted to 6.6 ± 0.6 K. Also, the IC50 on human OGG1 enzyme [4] (setting [5]) was 6.28 µM and 6.2 µM and 6.46 µM; on human OGG1 enzyme [4] (setting [6]), 3.72 µM.
